Laboratory results: PubChem BioAssay (NCI)
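Protocol summary: plate cells (96-well), add compound at 5 concentrations, incubate 48 h, interpolate endpoints linearly. Definition used: TGI = concentration required for complete inhibition of growth.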

Assays:
Assay in all cases: growth of human tumour cells (NCI), 48 h
UACC-257 melanoma = tested on: UACC-257 melanoma
NCI-H460 lung = tested on: NCI-H460 lung
SK-MEL-28 melanoma = tested on: SK-MEL-28 melanoma
U251 CNS = tested on: U251 CNS
HS 578T breast = tested on: HS 578T breast
RPMI-8226 leukemia = tested on: RPMI-8226 leukemia
HOP-62 NSCLC = tested on: HOP-62 NSCLC
SK-MEL-5 melanoma = tested on: SK-MEL-5 melanoma
EKVX NSCLC = tested on: EKVX NSCLC
OVCAR-8 ovarian = tested on: OVCAR-8 ovarian
BT-549 breast = tested on: BT-549 breast
CCRF-CEM leukemia = tested on: CCRF-CEM leukemia
SK-OV-3 ovarian = tested on: SK-OV-3 ovarian
MDA-N = tested on: MDA-N
NCI-H226 lung = tested on: NCI-H226 lung
SF-295 CNS = tested on: SF-295 CNS
NCI/ADR-RES ovarian = tested on: NCI/ADR-RES ovarian
UO-31 renal = tested on: UO-31 renal
OVCAR-5 ovarian = tested on: OVCAR-5 ovarian
MDA-MB-231 breast = tested on: MDA-MB-231 breast
UACC-62 melanoma = tested on: UACC-62 melanoma
IGROV1 ovarian = tested on: IGROV1 ovarian
HL-60(TB) leukemia = tested on: HL-60(TB) leukemia
SK-MEL-2 melanoma = tested on: SK-MEL-2 melanoma
SF-268 CNS = tested on: SF-268 CNS
TK-10 renal = tested on: TK-10 renal
A498 renal = tested on: A498 renal
SNB-19 CNS = tested on: SNB-19 CNS
DU-145 prostate = tested on: DU-145 prostate
MCF7 breast = tested on: MCF7 breast
NCI-H522 lung = tested on: NCI-H522 lung
MDA-MB-435 = tested on: MDA-MB-435
M14 melanoma = tested on: M14 melanoma
COLO 205 colon = tested on: COLO 205 colon
SW-620 colon = tested on: SW-620 colon
LOX IMVI melanoma = tested on: LOX IMVI melanoma
A549 NSCLC = tested on: A549 NSCLC
HT29 colon = tested on: HT29 colon
CAKI-1 renal = tested on: CAKI-1 renal
786-0 renal = tested on: 786-0 renal
MALME-3M melanoma = tested on: MALME-3M melanoma
K-562 leukemia = tested on: K-562 leukemia
HCT-15 colon = tested on: HCT-15 colon
NCI-H23 lung = tested on: NCI-H23 lung
MOLT-4 leukemia = tested on: MOLT-4 leukemia
T-47D breast = tested on: T-47D breast
PC-3 prostate = tested on: PC-3 prostate
HCT-116 colon = tested on: HCT-116 colon
HOP-92 NSCLC = tested on: HOP-92 NSCLC
SF-539 CNS = tested on: SF-539 CNS
SN12C renal = tested on: SN12C renal
OVCAR-4 ovarian = tested on: OVCAR-4 ovarian
ACHN renal = tested on: ACHN renal
OVCAR-3 ovarian = tested on: OVCAR-3 ovarian
KM12 colon = tested on: KM12 colon
RXF 393 renal = tested on: RXF 393 renal
HCC-2998 colon = tested on: HCC-2998 colon
SNB-75 CNS = tested on: SNB-75 CNS

`CC(=O)c1ccc2c3c1O[C@H]1c4[nH]c5ccccc5c4C[C@@]4(O)[C@@H](C2)N(CC2CC2)CC[C@]314` was tested, and the TGI (UACC-257 melanoma) was 30.7 µM, the TGI (NCI-H460 lung) was 17.7 µM and the TGI (SK-MEL-28 melanoma) was greater than 100 µM. It also gave a TGI (U251 CNS) of 26.1 µM, a TGI (HS 578T breast) of 15.2 µM and a TGI (RPMI-8226 leukemia) of 45.1 µM. The TGI (HOP-62 NSCLC) was 36.5 µM, the TGI (SK-MEL-5 melanoma) was 31.8 µM and the TGI (EKVX NSCLC) was 45.3 µM. It also gave a TGI (OVCAR-8 ovarian) of 27.8 µM, a TGI (BT-549 breast) of 29.6 µM and a TGI (CCRF-CEM leukemia) of 28.2 µM. For the same compound, the TGI (SK-OV-3 ovarian) was 35.9 µM, the TGI (MDA-N) was 34.6 µM and the TGI (NCI-H226 lung) was 42.5 µM. It also gave a TGI (SF-295 CNS) of 29 µM, a TGI (NCI/ADR-RES ovarian) of 26.6 µM and a TGI (UO-31 renal) of 28.7 µM. The TGI (OVCAR-5 ovarian) was 28.1 µM, the TGI (MDA-MB-231 breast) was 25.7 µM and the TGI (UACC-62 melanoma) was 30.7 µM. The TGI (IGROV1 ovarian) was 30.1 µM, the TGI (HL-60(TB) leukemia) was 37 µM and the TGI (SK-MEL-2 melanoma) was 30.9 µM. The TGI (SF-268 CNS) was 28.8 µM, the TGI (TK-10 renal) was 32.4 µM and the TGI (A498 renal) was 16.1 µM. It also gave a TGI (SNB-19 CNS) of 20.8 µM, a TGI (DU-145 prostate) of 39.5 µM and a TGI (MCF7 breast) of 30.4 µM. It also gave a TGI (NCI-H522 lung) of 35.3 µM, a TGI (MDA-MB-435) of 32.5 µM and a TGI (M14 melanoma) of 31.3 µM. It also gave a TGI (COLO 205 colon) of 30.8 µM, a TGI (SW-620 colon) of 20.6 µM and a TGI (LOX IMVI melanoma) of 33 µM. For the same compound, the TGI (A549 NSCLC) was 21.3 µM, the TGI (HT29 colon) was 20 µM and the TGI (CAKI-1 renal) was 37.4 µM. For the same compound, the TGI (786-0 renal) was 28.3 µM, the TGI (MALME-3M melanoma) was 36.3 µM and the TGI (K-562 leukemia) was 41.3 µM. For the same compound, the TGI (HCT-15 colon) was 25.3 µM, the TGI (NCI-H23 lung) was 48.1 µM and the TGI (MOLT-4 leukemia) was 47.6 µM. It also gave a TGI (T-47D breast) of 44 µM, a TGI (PC-3 prostate) of 21.7 µM and a TGI (HCT-116 colon) of 28.9 µM. The TGI (HOP-92 NSCLC) was 28.2 µM, the TGI (SF-539 CNS) was 29.3 µM and the TGI (SN12C renal) was 34.4 µM. It also gave a TGI (OVCAR-4 ovarian) of 39.9 µM, a TGI (ACHN renal) of 30.9 µM and a TGI (OVCAR-3 ovarian) of 23.4 µM. The TGI (KM12 colon) was 37.6 µM and the TGI (RXF 393 renal) was 27.3 µM.
`CC1=CC(=O)/C(=C/n2c(=S)[nH]c3cc(C)ccc32)C(=O)O1` gave a TGI (UACC-257 melanoma) greater than 100 µM, a TGI (NCI-H460 lung) greater than 100 µM and a TGI (SK-MEL-28 melanoma) greater than 100 µM. For the same compound, the TGI (U251 CNS) was greater than 100 µM, the TGI (HS 578T breast) was greater than 100 µM and the TGI (HOP-62 NSCLC) was greater than 100 µM. For the same compound, the TGI (SK-MEL-5 melanoma) was greater than 100 µM, the TGI (EKVX NSCLC) was greater than 100 µM and the TGI (OVCAR-8 ovarian) was greater than 100 µM. The TGI (BT-549 breast) was greater than 100 µM, the TGI (CCRF-CEM leukemia) was greater than 100 µM and the TGI (SK-OV-3 ovarian) was greater than 100 µM. For the same compound, the TGI (MDA-N) was greater than 100 µM, the TGI (NCI-H226 lung) was greater than 100 µM and the TGI (SF-295 CNS) was greater than 100 µM. The TGI (NCI/ADR-RES ovarian) was greater than 100 µM, the TGI (UO-31 renal) was greater than 100 µM and the TGI (OVCAR-5 ovarian) was greater than 100 µM. The TGI (MDA-MB-231 breast) was greater than 100 µM, the TGI (UACC-62 melanoma) was greater than 100 µM and the TGI (IGROV1 ovarian) was greater than 100 µM. For the same compound, the TGI (HL-60(TB) leukemia) was greater than 100 µM, the TGI (SK-MEL-2 melanoma) was greater than 100 µM and the TGI (SF-268 CNS) was greater than 100 µM. For the same compound, the TGI (TK-10 renal) was greater than 100 µM, the TGI (SNB-19 CNS) was greater than 100 µM and the TGI (DU-145 prostate) was greater than 100 µM. The TGI (MCF7 breast) was greater than 100 µM, the TGI (NCI-H522 lung) was greater than 100 µM and the TGI (MDA-MB-435) was greater than 100 µM. It also gave a TGI (M14 melanoma) greater than 100 µM, a TGI (COLO 205 colon) greater than 100 µM and a TGI (HCC-2998 colon) greater than 100 µM. The TGI (SW-620 colon) was greater than 100 µM, the TGI (SNB-75 CNS) was greater than 100 µM and the TGI (LOX IMVI melanoma) was greater than 100 µM. It also gave a TGI (A549 NSCLC) greater than 100 µM, a TGI (HT29 colon) greater than 100 µM and a TGI (CAKI-1 renal) greater than 100 µM. For the same compound, the TGI (786-0 renal) was greater than 100 µM, the TGI (HCT-15 colon) was greater than 100 µM and the TGI (NCI-H23 lung) was greater than 100 µM. It also gave a TGI (MOLT-4 leukemia) greater than 100 µM, a TGI (PC-3 prostate) greater than 100 µM and a TGI (HCT-116 colon) greater than 100 µM. For the same compound, the TGI (HOP-92 NSCLC) was greater than 100 µM, the TGI (SF-539 CNS) was greater than 100 µM and the TGI (SN12C renal) was greater than 100 µM. The TGI (OVCAR-4 ovarian) was greater than 100 µM, the TGI (ACHN renal) was greater than 100 µM and the TGI (OVCAR-3 ovarian) was greater than 100 µM. The TGI (KM12 colon) was greater than 100 µM and the TGI (RXF 393 renal) was greater than 100 µM.
